Holding throughout (assay type): cell-based
For one assay, the target named is T1, EGFR S720P (Homo sapiens, UniProt P00533, S720P).
T1 construct: expressed in transfected cells; host or cells: Ba/F3 (retroviral, pBabe-Puro based vector; created by GeneScript from EGFR WT)
The assay can be described thus: Ba/F3 cell drug screening, Cell Titer Glo. The conditions noted are these: Ba/F3 cells expressing EGFR S720P; 72 hours. As to the method:
(§1) Ba/F3 cell generation, drug screening, and IC50 approximations. Ba/F3 cells were obtained as a gift from Dr. Gordon Mills (MD Anderson Cancer Center), and maintained in RPMI (Sigma) containing 10% FBS, 1% penicillin/streptomycin, and 10 ng/ml recombinant mIL-3 (R&D Biosystems). To establish stable Ba/F3 cell lines, Ba/F3 cells were transduced with retroviruses containing mutant EGFR plasmids for 12-24 hours. Retroviruses were generated using Lipofectamine 2000 (Invitrogen) transfections of Phoenix 293T-ampho cells (Orbigen) with pBabe-Puro based vectors listed below in Table 6. Vectors were generated by GeneScript or Bioinnovatise using parental vectors from Addgene listed below in Table 6.
(§2) After 48-72 hours of transduction, 2 μg/ml puromycin (Invitrogen) was added to Ba/F3 cell lines in complete RPMI. To select for EGFR positive cell lines, cells were stained with PE-EGFR (Biolegend) and sorted by FACS. After sorting, EGFR positive cells were maintained in RPMI containing 10% FBS, 1% penicillin/streptomycin, and 1 ng/ml EGF to support cell viability. Drug screening was performed as previously described^41,42. Shortly, cells were plated in 384-well plates (Greiner Bio-One) at 2000-3000 cells per well in technical triplicate. Seven different concentrations of TKIs or DMSO vehicle were added to reach a final volume of 40 μL per well. After 72 hours, 11p L of Cell Titer Glo (Promega) was added to each well. Plates were incubated for a minimum of 10 minutes, and bioluminescence was determined using a FLUOstar OPTIMA plate reader (BMG LABTECH). Raw bioluminescence values were normalized to DMSO control treated cells, and values were plotted in GraphPad Prism. Non-linear regressions were used to fit the normalized data with a variable slope, and IC50 values were determined by GraphPad prism by interpolation of concentrations at 50% inhibition. Drug screens were performed in technical triplicate on each plate and either duplicate or triplicate biological replicates. Mutant to WT ratios (Mut/WT) for each drug were calculated by dividing the IC50 values of mutant cell lines by the average IC50 value of Ba/F3 cells expressing WT EGFR supplemented with 10 ng/ml EGF for each drug. Statistical differences between groups were determined by ANOVA as described in the figure legends.
On the technique in general: Cellular ATP, detected with luciferase, serves as a proxy for viable cell number.

Another assay addresses T2, EGFR S768I (Homo sapiens, UniProt P00533, S768I).
T2 construct: expressed in transfected cells; host or cells: Ba/F3 (retroviral transduction, pBabe-Puro based vectors)
The assay can be described thus: Ba/F3 cell drug screening, Cell Titer Glo. The conditions noted are these: Ba/F3 cells expressing EGFR S768I; 72 hours. As to the method:
as §1, §2

A further assay concerns the target T3, EGFR E709A G719S (Homo sapiens, UniProt P00533, E709A/G719S).
T3 construct: expressed in transfected cells; host or cells: Ba/F3 (retroviral transduction, pBabe-Puro based vectors)
The assay can be described thus: Ba/F3 cell drug screening, Cell Titer Glo. The conditions noted are these: Ba/F3 cells expressing EGFR E709A G719S; 72 hours. As to the method:
as §1, §2

Another assay has as its target T4, EGFR E709K (Homo sapiens, UniProt P00533, E709K).
T4 construct: expressed in transfected cells; host or cells: Ba/F3 (retroviral transduction, pBabe-Puro based vectors)
The assay can be described thus: Ba/F3 cell drug screening, Cell Titer Glo. The conditions noted are these: Ba/F3 cells expressing EGFR E709K; 72 hours. As to the method: as §1, §2

The target in another assay is T5, EGFR Ex19del T790M C797S (Homo sapiens, UniProt P00533, C797S/DEL746-750/T790M).
T5 construct: expressed in transfected cells; host or cells: Ba/F3 (retroviral transduction, pBabe-Puro based vectors)
The assay can be described thus: Ba/F3 cell drug screening, Cell Titer Glo. The conditions noted are these: Ba/F3 cells expressing EGFR Ex19del T790M C797S; 72 hours. On the procedure:
as §1, §2

Another assay deals with T6, EGFR L718V (Homo sapiens, UniProt P00533, L718V).
T6 construct: expressed in transfected cells; host or cells: Ba/F3 (retroviral transduction, pBabe-Puro based vectors)
The assay can be described thus: Ba/F3 cell drug screening, Cell Titer Glo. The conditions noted are these: Ba/F3 cells expressing EGFR L718V; 72 hours. On the procedure: as §1, §2

Another assay deals with T7, EGFR N771dupN G724S (Homo sapiens, UniProt P00533, DUP771-771/G724S).
T7 construct: expressed in transfected cells; host or cells: Ba/F3 (retroviral, pBabe-Puro based vector; created by GeneScript from EGFR G724S, c.2313_2314insAAC)
The assay can be described thus: Ba/F3 cell drug screening, Cell Titer Glo. The conditions noted are these: Ba/F3 cells expressing EGFR N771dupN G724S; 72 hours. As to the method:
as §1, §2

The target of the next assay is T8, EGFR G719A (Homo sapiens, UniProt P00533, G719A).
T8 construct: expressed in transfected cells; host or cells: Ba/F3 (retroviral transduction, pBabe-Puro based vectors)
The assay can be described thus: Ba/F3 cell drug screening, Cell Titer Glo. The conditions noted are these: Ba/F3 cells expressing EGFR G719A; 72 hours. As to the method:
as §1, §2

For the next assay, the target named is T9, EGFR Ex19del T854I (Homo sapiens, UniProt P00533, DEL746-750/T854I).
T9 construct: expressed in transfected cells; host or cells: Ba/F3 (murine pro-B cells), retroviral transduction with pBabe-Puro based vectors
The assay can be described thus: Ba/F3 cell drug screening, Cell Titer Glo. The conditions noted are these: Ba/F3 cells expressing EGFR Ex19del T854I; 72 hours. As to the method: as §1, §2

In another assay the target is T10, EGFR E709K L858R (Homo sapiens, UniProt P00533, E709K/L858R).
T10 construct: expressed in transfected cells; host or cells: Ba/F3 (retroviral, pBabe-Puro based vector)
The assay can be described thus: Ba/F3 cell drug screening, Cell Titer Glo. The conditions noted are these: Ba/F3 cells expressing EGFR E709K L858R; 72 hours. As to the method:
as §1, §2

The target of the next assay is T11, EGFR G724S T790M (Homo sapiens, UniProt P00533, G724S/T790M).
T11 construct: expressed in transfected cells; host or cells: Ba/F3 (retroviral transduction, pBabe-Puro based vectors)
The assay can be described thus: Ba/F3 cell drug screening, Cell Titer Glo. The conditions noted are these: Ba/F3 cells expressing EGFR G724S T790M; 72 hours. As to the method:
as §1, §2

A further assay concerns the target T12, EGFR S811F (Homo sapiens, UniProt P00533, S811F).
T12 construct: expressed in transfected cells; host or cells: Ba/F3 (retroviral, pBabe-Puro based vector; created by GeneScript from EGFR WT)
The assay can be described thus: Ba/F3 cell drug screening, Cell Titer Glo. The conditions noted are these: Ba/F3 cells expressing EGFR S811F; 72 hours. On the procedure: as §1, §2

Assay [1] relates to exon 20 loop insertion mutations. The assay can be described thus: Ba/F3 drug screening, mutant/WT IC50 by class of EGFR TKI. The conditions noted are these: Ba/F3 cells expressing exon 20 loop insertion mutations. As to the method: as §1
After 48-72 hours of transduction, 2 μg/ml puromycin (Invitrogen) was added to Ba/F3 cell lines in complete RPMI. To select for EGFR positive cell lines, cells were stained with PE-EGFR (Biolegend) and sorted by FACS. […] Plates were incubated for a minimum of 10 minutes, and bioluminescence was determined using a FLUOstar OPTIMA plate reader (BMG LABTECH). […] Statistical differences between groups were determined by ANOVA as described in the figure legends.
Heatmap generation and spearman correlations of groups. […] Hierarchical clustering was determined by Euclidean distance between Mut/WT ratios. […]

In the case of `C=CC(=O)N1CCC(Oc2cc3c(Nc4ccc(Cl)c(Cl)c4F)ncnc3cc2OC)CC1` [Poziotinib], the “Response of Cells Comprising Classical-Like EGFR Mutations to Second-Generation TKIs” value on EGFR S720P is listed as 0.1814; at EGFR E709K L858R it was 0.005342; at EGFR S811F it was 0.2983. The “Response of Cells Comprising PACC EGFR Mutations to Second-Generation TKIs” value on EGFR S768I was found to be 4.858; on EGFR E709A G719S, 0.01612; at EGFR E709K it was 0.0379; on EGFR L718V it was 0.2403; at EGFR G719A, 0.02575; on EGFR Ex19del T854I, 0.008664. Further, the “Response of Cells Comprising T790M-like-R EGFR Mutations to Second-Generation TKIs” value stood at 1862 at EGFR Ex19del T790M C797S and 2.924 at EGFR G724S T790M. The “Response of Cells Comprising Ex20ins EGFR Mutations to Poziotinib” value at EGFR N771dupN G724S is on record as 0.2167. For the same compound, the “sensitivity of Ex20ins mutations in vitro” value in [1] is “sensitive”.

The record behind these values is patent US20240108623A1, “METHODS OF TREATING CANCER WITH POZIOTINIB” (BOARD OF REGENTS, THE UNIVERSITY OF TEXAS SYSTEM, priority 2021, published 2024).
